Experimental data as given in patent publication US4576962A, “Prostaglandin analogues” (priority 1984, dated 1986).

What was measured:
pregnant quinea pigs = assay: abortificative effect in pregnant guinea pigs; assay type: in vivo; details: 25 mg/kg oral, days 43 and 44 of gestation, 6 animals
Experimental: Another important side effect of natural prostaglandins and prostaglandin analogues is their abortificative effect. Compound 1 was tested for this effect as follows.

[1] = enteropooling assay (diarrheogenic effect, Robert); assay type: in vivo; details: in vivo; for selectivity ratio: enteropooling dose relative to ED50 cytoprotection, defined in drawing 10, read-out: TI (therapeutic index)
From the text: (§1) One of the most important side-effects of prostaglandins and prostaglandin analogues is their diarrheogenic effect. An assay was developed by Robert to test the diarrheogenic properties of prostaglandins and prostaglandin analogues. The test quantitatively determines the amount of "enteropooling", i.e. the accumulation of fluid into the small intestine.

small intestine = assay: enteropooling assay (diarrheogenic effect, Robert); assay type: in vivo
From the text: as §1

rat fundic strip = assay: smooth muscle contraction, rat fundic strip assay
Experimental: The smooth muscle contraction potency of compound 1 was tested in the rat fundic strip assay, described by W. L. M. Perry in "Pharmacological Experiments on Isolated Preparations," 2nd ed. (1970), pp. 88-89, Churchill L. Livingstone, publisher.

stomach mucosa = assay: cytoprotective activity in rats (absolute ethanol induced stomach mucosa lesions); assay type: in vivo, Sprague-Dawley rats; details: for ED50 / Cytoprotection %: rat, oral; for ED50: read-out: ED50 Cytoprotection
Experimental: A number of the 13,14-didehydro-15-oxo-prostaglandin analogues have been tested for cytoprotective activity in rats. In this test, Sprague-Dawley rats were fasted for 24 hours prior to the pretreatment. […] The control animals were given 2.5 ml of the vehicle, without prostaglandin analogue. A half hour later after the pretreatment, absolute ethanol was administered orally to the animals, in a dose of 10 mL per kg body weight. One hour later the animals were sacrificed, their stomachs dissected out, opened along the greater curvature and the mucosa examined for lesions. The average lesion length is expressed as percentage of the average lesion length found in the stomach mucosa of control animals.
Importantly, this test measures the active cytoprotective properties of the prostaglandin analogues, independent of the gastric secretion inhibition that these compounds may or may not show. The test is discussed more fully by Robert et al., Gastroenterology 77 (1979) 433, incorporated herein by reference.

gastric ulceration [2] = assay: gastric ulceration in patients, capsules administered twice daily; assay type: in vivo; details: patient ca. 70 kg
gastric ulceration [3] = assay: gastric ulceration in arthritis patients receiving aspirin, tablets four times daily; assay type: in vivo; details: tablets orally four times daily; patients with arthritis on 1000 mg aspirin daily
[4] = rat model; compared to natural prostaglandin PGE2; cited from earlier work
[5] = metabolism / intragastric dehydrogenation at C15; cited from earlier work
[6] = background art; cited from earlier work
PGDH = details: Gandolfi et al.; cited from earlier work
[7] = dose 0.5 mg/kg, negative = lesions worse than control

## CCCCCC(=O)C#C[C@H]1CCC(=O)[C@@H]1CCCCCCC(=O)O (relative stereo) [Compound 1, 11-Deoxy-13,14-didehydro-15-oxo PGE1]
Pregnant quinea pigs
  abortion induced: in none of the animals did the dose of compound 1 induce abortion
[1]
  TD50: 25000 µg/kg
  selectivity ratio: 250
Small intestine; compared to PGE2 and PGE2 analogues
  diarrheogenic effect: very low diarrheogenic effect
Small intestine; compared with the other compounds of table 2
  therapeutic index: significantly higher
Rat fundic strip; compound 1 EC50 higher than that of PGE2
  EC50 for smooth muscle contraction relative to PGE2: three orders of magnitude higher
Rat fundic strip; compound 1 EC50 higher than that of PGF2α and PGE1
  EC50 for smooth muscle contraction relative to PGF2α and PGE1: two orders of magnitude higher
Rat fundic strip; rat fundic strip
  EC50: 5 µM
Stomach mucosa
  ED50: 0.1 mg/kg

## CCCCCC(=O)/C=C/[C@H]1CCC(=O)[C@@H]1CCCCCCC(=O)OC (relative stereo) [PGE1 trans oxo (a) (d)]
Stomach mucosa; [7]
  Cytoprotection %: -22%
Stomach mucosa; dose 3 mg/kg
  Cytoprotection %: 52%

## CCCCCC(=O)C#C[C@H]1CCC(=O)[C@@H]1CCCCCCC(=O)OC (relative stereo) [PGE1 triple oxo (a) (d)]
Stomach mucosa; [7]
  Cytoprotection %: 39%
Stomach mucosa; dose 1 mg/kg
  Cytoprotection %: 81%
Stomach mucosa; dose 3 mg/kg
  Cytoprotection %: 78%
Stomach mucosa; dose 5 mg/kg
  Cytoprotection %: 96%

## CCCCCC(=O)C#C[C@H]1[C@H](O)CC(=O)[C@@H]1CCCCCCC(=O)O [13,14-didehydro-15-oxo PGE1]
Gastric ulceration [2]
  reduction of gastric ulceration: substantially reduce gastric ulceration

## CCCCCC(=O)C#C[C@@H]1[C@@H](C/C=C\CCCC(=O)O)[C@@H](O)C[C@H]1O [13,14-didehydro-15-oxo-PGF2α]
Gastric ulceration [3]
  reduction of incidence of gastric ulceration: effectively reduces the incidence of gastric ulceration

## CCCCC[C@@](C)(O)/C=C/[C@H]1[C@H](O)CC(=O)[C@@H]1C/C=C\CCCC(=O)O [15(R)-15-methyl PGE2]
[1]
  TD50: 5 µg/kg
  selectivity ratio: 25 to 100
[4]
  ED50 for cytoprotection: lower value of the ED50
[5]
  stability: better stability

## CCCCC[C@](C)(O)/C=C/[C@H]1[C@H](O)CC(=O)[C@@H]1C/C=C\CCCC(=O)O [15(S),15-methyl PGE2]
[5]
  stability: more stable than PGE2 itself

## CCCC[C@@H](C)[C@H](O)C#C[C@H]1[C@H](O)CC(=O)[C@@H]1C/C=C\CCCC(=O)O [16(R),16-methyl-13-dehydro PGE2]
[6]
  gastric anti-ulcer properties / activity: potent gastric anti-ulcer properties
PGDH
  substrate for the enzyme PGDH: not substrates for the enzyme PGDH

## CCCC[C@H](C)[C@H](O)C#C[C@H]1[C@H](O)CC(=O)[C@@H]1C/C=C\CCCC(=O)O [16(S),16-methyl-13-dehydro PGE2]
[6]
  gastric anti-ulcer properties / activity: potent gastric anti-ulcer properties
PGDH
  substrate for the enzyme PGDH: not substrates for the enzyme PGDH

## CCCCC(C)(C)[C@H](O)/C=C/[C@H]1[C@H](O)CC(=O)[C@@H]1C/C=C\CCCC(=O)O [16,16-dimethyl PGE2]
[1]
  TD50: 0.5 µg/kg
  selectivity ratio: 10
[4]
  ED50 for cytoprotection: lower value of the ED50

## CCCCC[C@H](O)/C=C/[C@H]1[C@H](O)CC(=O)[C@@H]1C/C=C\CCCC(=O)O [PGE2]
[1]
  selectivity ratio: 30
Small intestine; in vivo
  Enteropooling Dose (ED50 for enteropooling): 0.750 mg/kg
[5]
  stability: readily metabolized
Stomach mucosa
  ED50: 0.025 mg/kg

## CCCCC[C@H](O)/C=C/[C@@H]1[C@@H](C/C=C\CCCC(=O)OC)[C@@H](O)C[C@H]1O [PGF2α trans OH (a)]
Stomach mucosa; dose 0.001 mg/kg
  Cytoprotection %: -19%
Stomach mucosa; dose 0.01 mg/kg
  Cytoprotection %: 1.7%
Stomach mucosa; dose 0.1 mg/kg
  Cytoprotection %: -17%
Stomach mucosa; [7]
  Cytoprotection %: 82%

## CCCCCC(=O)C#C[C@@H]1[C@@H](C/C=C\CCCC(=O)OC)[C@@H](O)C[C@H]1O [PGF2α triple oxo (a), 13,14-didehydro-15-keto PGF2α methyl ester]
Stomach mucosa; compared with PGF2α itself (tests nos. 7-10)
  cytoprotective potency: much more potent cytoprotective agent
Stomach mucosa; dose 0.001 mg/kg
  Cytoprotection %: 6%
Stomach mucosa; dose 0.01 mg/kg
  Cytoprotection %: 23%
Stomach mucosa; dose 0.1 mg/kg
  Cytoprotection %: 50%
Stomach mucosa; [7]
  Cytoprotection %: 98%
